Results from the supplement of paper PMC10307832.

What was measured:
Assay in all cases: relative viability (nuclei count vs DMSO), 5 days (fraction); higher = more cells survive
[1] = system: NCI-H1793
Method in brief: (§1)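 Relative viability divides the nuclei count in treated wells by that in vehicle wells. Lung cancer cell lines were seeded in 1536-well plates, dosed by pin tool the next day, and fixed and stained after 5 days in one step with final 0.05% Triton X-100, 1% formaldehyde and 1 ug/ml Hoechst. Dosing was a single drug or a fixed anchor-drug dose plus five library-drug doses (not always all listed) in √10 steps, and values are medians of duplicate plates imaged at 4×.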

[2] = system: NCI-H838
Method in brief: as §1

[3] = system: NCI-H23
Method in brief: as §1

[4] = system: LU99A
Method in brief: as §1

[5] = system: PC-3 [JPC-3]
Method in brief: as §1

[6] = system: BEN
Method in brief: as §1

[7] = system: NCI-H2347
Method in brief: as §1

[8] = system: NCI-H460
Method in brief: as §1

[9] = system: RERF-LC-KJ
Method in brief: as §1

[10] = system: LOU-NH91
Method in brief: as §1

[11] = system: EKVX
Method in brief: as §1

[12] = system: NCI-H1355
Method in brief: as §1

[13] = system: LC-2-ad
Method in brief: as §1

[14] = system: A-427
Method in brief: as §1

[15] = system: LCLC-97TM1
Method in brief: as §1

[16] = system: NCI-H650
Method in brief: as §1

[17] = system: NCI-H1666
Method in brief: as §1

[18] = system: NCI-H1993
Method in brief: as §1

[19] = system: NCI-H1915
Method in brief: as §1

## O=C(O)CCCCC(CCSCc1ccccc1)SCc1ccccc1 (stereo not drawn) [CPI-613] + NC(=O)Nc1cc(-c2cccc(F)c2)sc1C(=O)N[C@H]1CCCNC1 [AZD7762] (partner 0.2 µM)
[1]; first compound 5 µM
  relative viability: 0.447
[1]; first compound 15.81 µM
  relative viability: 0.367
[1]; first compound 50 µM
  relative viability: 0.372
[1]; first compound 158.11 µM
  relative viability: 0.11
[1]; first compound 500 µM
  relative viability: 0.0077
[2]; first compound 5 µM
  relative viability: 0.977
[2]; first compound 15.81 µM
  relative viability: 0.935
[2]; first compound 50 µM
  relative viability: 0.893
[2]; first compound 158.11 µM
  relative viability: 0.844
[2]; first compound 500 µM
  relative viability: 0.912
[3]; first compound 5 µM
  relative viability: 0.212
[3]; first compound 15.81 µM
  relative viability: 0.274
[3]; first compound 50 µM
  relative viability: 0.218
[3]; first compound 158.11 µM
  relative viability: 0.151
[3]; first compound 500 µM
  relative viability: 0.0026
[4]; first compound 5 µM
  relative viability: 0.338
[4]; first compound 15.81 µM
  relative viability: 0.326
[4]; first compound 50 µM
  relative viability: 0.322
[4]; first compound 158.11 µM
  relative viability: 0.335
[4]; first compound 500 µM
  relative viability: 0.0775
[5]; first compound 5 µM
  relative viability: 0.777
[5]; first compound 50 µM
  relative viability: 0.909
[5]; first compound 158.11 µM
  relative viability: 0.464
[5]; first compound 500 µM
  relative viability: 0.114
[6]; first compound 5 µM
  relative viability: 0.653
[6]; first compound 15.81 µM
  relative viability: 0.485
[6]; first compound 50 µM
  relative viability: 0.697
[6]; first compound 158.11 µM
  relative viability: 0.672
[6]; first compound 500 µM
  relative viability: 0.526
[7]; first compound 5 µM
  relative viability: 0.735
[7]; first compound 15.81 µM
  relative viability: 0.787
[7]; first compound 50 µM
  relative viability: 0.715
[7]; first compound 158.11 µM
  relative viability: 0.718
[7]; first compound 500 µM
  relative viability: 0.435
[8]; first compound 5 µM
  relative viability: 0.633
[8]; first compound 15.81 µM
  relative viability: 0.529
[8]; first compound 50 µM
  relative viability: 0.613
[8]; first compound 158.11 µM
  relative viability: 0.418
[8]; first compound 500 µM
  relative viability: 0.291
[9]; first compound 5 µM
  relative viability: 0.98
[9]; first compound 15.81 µM
  relative viability: 0.917
[9]; first compound 50 µM
  relative viability: 1
[9]; first compound 158.11 µM
  relative viability: 0.94
[9]; first compound 500 µM
  relative viability: 0.921
[10]; first compound 5 µM
  relative viability: 0.74
[10]; first compound 15.81 µM
  relative viability: 0.7
[10]; first compound 50 µM
  relative viability: 0.753
[10]; first compound 158.11 µM
  relative viability: 0.633
[10]; first compound 500 µM
  relative viability: 0.241
[11]; first compound 5 µM
  relative viability: 0.731
[11]; first compound 15.81 µM
  relative viability: 0.646
[11]; first compound 50 µM
  relative viability: 0.505
[11]; first compound 500 µM
  relative viability: 0.62
[12]; first compound 5 µM
  relative viability: 0.721
[12]; first compound 15.81 µM
  relative viability: 0.741
[12]; first compound 50 µM
  relative viability: 0.772
[12]; first compound 158.11 µM
  relative viability: 0.52
[12]; first compound 500 µM
  relative viability: 0.185
[13]; first compound 5 µM
  relative viability: 0.771
[13]; first compound 15.81 µM
  relative viability: 0.813
[13]; first compound 50 µM
  relative viability: 0.825
[13]; first compound 158.11 µM
  relative viability: 0.283
[13]; first compound 500 µM
  relative viability: 0.01
[14]; first compound 5 µM
  relative viability: 0.66
[14]; first compound 15.81 µM
  relative viability: 0.642
[14]; first compound 50 µM
  relative viability: 0.661
[14]; first compound 158.11 µM
  relative viability: 0.326
[14]; first compound 500 µM
  relative viability: 0.173
[15]; first compound 5 µM
  relative viability: 0.293
[15]; first compound 15.81 µM
  relative viability: 0.225
[15]; first compound 50 µM
  relative viability: 0.229
[15]; first compound 158.11 µM
  relative viability: 0.125
[15]; first compound 500 µM
  relative viability: 0.0538
[16]; first compound 5 µM
  relative viability: 1.01
[16]; first compound 15.81 µM
  relative viability: 0.925
[16]; first compound 50 µM
  relative viability: 1.03
[16]; first compound 158.11 µM
  relative viability: 0.49
[16]; first compound 500 µM
  relative viability: 0.655
[17]; first compound 5 µM
  relative viability: 0.911
[17]; first compound 15.81 µM
  relative viability: 0.821
[17]; first compound 50 µM
  relative viability: 0.761
[17]; first compound 158.11 µM
  relative viability: 0.376
[17]; first compound 500 µM
  relative viability: 0.553
[18]; first compound 5 µM
  relative viability: 0.743
[18]; first compound 15.81 µM
  relative viability: 0.688
[18]; first compound 50 µM
  relative viability: 0.65
[18]; first compound 158.11 µM
  relative viability: 0.537
[18]; first compound 500 µM
  relative viability: 0.286
[19]; first compound 5 µM
  relative viability: 0.684
[19]; first compound 15.81 µM
  relative viability: 0.639
[19]; first compound 50 µM
  relative viability: 0.627
[19]; first compound 158.11 µM
  relative viability: 0.535
[19]; first compound 500 µM
  relative viability: 0.303
